Results from ChEMBL document CHEMBL5465560, “Selectivity Literature for EUbOPEN Chemogenomic Library” (2024).
Numbering of substitutions follows the chain as printed.

Columns and labels:
Details in all cases: at 10 µM
[1] = test system: T1, Receptor-type tyrosine-protein kinase FLT3 (Homo sapiens), P36888 [D835H]; assay: (§1) Selectivity interaction (KinomeScan (DiscoverX)) EUB0000666a FLT3
T1 sequence (whole entry): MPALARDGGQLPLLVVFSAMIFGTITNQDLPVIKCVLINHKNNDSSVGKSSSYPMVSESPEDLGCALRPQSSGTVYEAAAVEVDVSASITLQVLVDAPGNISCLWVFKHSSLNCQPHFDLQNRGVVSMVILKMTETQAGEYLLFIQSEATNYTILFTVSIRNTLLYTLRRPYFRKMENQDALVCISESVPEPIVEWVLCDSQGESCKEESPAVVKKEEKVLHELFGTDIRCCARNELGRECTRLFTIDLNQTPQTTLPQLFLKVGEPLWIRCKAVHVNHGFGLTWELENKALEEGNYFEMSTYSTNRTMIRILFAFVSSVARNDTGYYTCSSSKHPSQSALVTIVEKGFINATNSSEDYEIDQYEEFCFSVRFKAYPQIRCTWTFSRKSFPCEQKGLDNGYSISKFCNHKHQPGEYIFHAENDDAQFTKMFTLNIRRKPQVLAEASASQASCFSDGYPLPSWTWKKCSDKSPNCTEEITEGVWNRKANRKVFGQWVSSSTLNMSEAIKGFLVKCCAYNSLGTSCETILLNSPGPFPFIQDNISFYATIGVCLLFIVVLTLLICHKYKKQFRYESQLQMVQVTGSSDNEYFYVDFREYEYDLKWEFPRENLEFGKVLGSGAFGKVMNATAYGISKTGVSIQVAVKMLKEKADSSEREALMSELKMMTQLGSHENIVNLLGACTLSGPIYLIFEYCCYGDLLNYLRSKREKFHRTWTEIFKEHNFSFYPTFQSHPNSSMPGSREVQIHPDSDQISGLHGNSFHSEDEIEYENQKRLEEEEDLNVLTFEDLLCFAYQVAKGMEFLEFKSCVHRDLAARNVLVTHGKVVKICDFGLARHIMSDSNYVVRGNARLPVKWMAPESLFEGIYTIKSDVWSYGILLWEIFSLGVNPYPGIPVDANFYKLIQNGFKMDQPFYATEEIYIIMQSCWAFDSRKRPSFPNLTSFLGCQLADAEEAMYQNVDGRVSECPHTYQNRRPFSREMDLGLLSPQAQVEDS

[2] = test system: T2, Receptor-type tyrosine-protein kinase FLT3 (Homo sapiens), P36888 [D835Y]; assay: as §1
T2 sequence (whole entry): T1 sequence (whole entry) with H835Y

[3] = test system: T3, Receptor-type tyrosine-protein kinase FLT3 (Homo sapiens), P36888 [N841I]; assay: as §1
T3 sequence (whole entry): T1 sequence (whole entry) with H835D, N841I

O=C(NOC[C@H](O)CO)c1ccc(F)c(F)c1Nc1ccc(I)cc1F
% of control [1]: 87%
% of control [2]: 100%
% of control [3]: 78%
